The target of one assay is HLA-Cw*1601 (Homo sapiens, UniProt P10321, /M331V/P208H/P217L/Q277E/Q291P/R121W/S123Y/S297R/S48A/T329A/T363A/V319A). Particulars: disclosed in earlier applications Ser. No. 08/79,110 and 08/196,630; cited from earlier work.
Assay [1] has as its system HLA-Cw*1601 positive lymphoblastoid cell line, i.e., LB678-EBV. The assay can be described thus: 51Cr release assay: peptide-stimulated lysis by CTLs. Format: cell-based, human. As to conditions: for ability of the peptide to stimulate lysis by CTLs: 51Cr labelled LB678-EBV target cells, peptide 15 minutes at room temperature, CTLs added, 51Cr release after four hours at 37° C. How it is done: Based upon this hypothesis, a series of peptides were constructed, and lyophilized prior to testing. The lyophilized peptides were dissolved in 1 volume of DMSO, then 9 volumes of H2O, plus 10 mM of acetic acid. The thus diluted peptides were stored at −20° C.
The ability of the peptides to stimulate lysis by CTLs was tested via the ^51Cr release method of Boon et al., J. Exp. Med. 152: 1184-1193 (1980). Specifically, an HLA-Cw*1601 positive lymphoblastoid cell line, i.e., LB678-EBV was ^51Cr labelled for one hour at 37° C., and washed extensively. Then 1000 of these target cells were incubated in 96 well microplates, in the presence of various concentrations of peptide, for 15 minutes, at room temperature. CTLs were then added, and ^51Cr release was measured after four hours, at 37° C.

Ends that are not written are not given here.

In the case of “AARAVFLAL [SEQ ID NO: 1, preferred BAGE-derived nonapeptide of earlier applications]”, the “complexes with HLA-Cw*1601 and stimulates CTL 82/82” value with HLA-Cw*1601 is “stimulating the cell line CTL 82/82”. Take “KISGGPRISYPL [SEQ ID NO: 5, corresponds to amino acids 126-137 of MAGE-6]”: in assay [1], the “ability of the peptide to stimulate lysis by CTLs” value is “Lysis first occurred”. For “amino acids 2-10 of SEQ ID NO: 5: nonamer consisting of amino acids 2-10 of SEQ ID NO: 5 (ISGGPRISY)”, the EC50 in assay [1] (51Cr release, LB678-EBV target cells, CTLs, four hours at 37° C., FIG. 3, read-out: peptide concentration achieving half maximal lysis) came out at 30 nM. Regarding “amino acids 3-10 of SEQ ID NO: 5: peptide consisting of amino acids 3-10 of SEQ ID NO: 5 (SGGPRISY)”, the “ability of the peptide to stimulate lysis by CTLs” value in assay [1] is “neither one stimulated lysis”. Same read-out and setting: the entry for “amino acids 1-9 of SEQ ID NO: 5: peptide consisting of amino acids 1-9 of SEQ ID NO: 5 (KISGGPRIS)” is “neither one stimulated lysis”.
